Active and inactive are the calls of the source. No rule for the calls is given here.
Experiments:
[1] = system: Cytotoxicity; assay: inhibitors of PAF-induced NFkB signaling in CF airway cells, dose response, cell-based, uHTS hits, panel, cytotoxicity readout (AID 624344); settings: CF bronchial epithelial cells, mean of runs
[2] = as above; settings: CF bronchial epithelial cells, PAF-induced NFkB reporter inhibition; with PAF, mean of runs

`COc1cc(NC(=O)c2cc3ccccc3cc2OC)ccc1NC(=O)c1cccs1` gave an IC50 [1] of 11 µM and an IC50 [2] of 5.79 µM.

Molecule `c1csc(CNc2ncnc3ccc(-c4ccoc4)cc23)c1` has an IC50 [1] of 7.68 µM and an IC50 [2] of 0.194 µM.

Work on `O=[N+]([O-])c1cccc(NC(=S)Nc2nc(-c3ccccc3Cl)cs2)c1` yielded an IC50 [1] of 10.1 µM and an IC50 [2] of 6.59 µM.

For `O=C(Oc1ccc(F)cc1C(=O)/C=C/c1cccs1)c1cccc([N+](=O)[O-])c1`, the IC50 [1] was > 79 µM (inactive) and the IC50 [2] was “inactive”.

`O=S(=O)(Nc1ccc(Cl)cc1NS(=O)(=O)c1ccccc1)c1ccccc1` showed an IC50 [1] of 40.3 µM and an IC50 [2] of 10 µM.

`COc1ccc(-c2csc3ncnc(NCCN4CCOCC4)c23)cc1` showed an IC50 [1] of 47 µM and an IC50 [2] of 3.79 µM.

With `CCCCCCCCCc1nc2sc3c(c2c(=O)n1NC(=O)c1ccc([N+](=O)[O-])cc1)CC(C)(C)OC3` the IC50 [1] was 43.8 µM and the IC50 [2] was 5.52 µM.

Work on `Cc1cc(C)cc(NS(=O)(=O)c2ccc(-c3cnc(C4CC4)o3)cc2)c1` yielded an IC50 [1] of 40.9 µM and an IC50 [2] of 12.1 µM.

For `O=C(c1[nH]c(C(F)(F)F)nc1-c1ccccc1)N1CCN(c2c(Cl)cncc2Cl)CC1`, the IC50 [1] was > 79 µM (inactive) and the IC50 [2] was 10.4 µM.

`CS(=O)(=O)Nc1cccc(-c2cc(NC=O)c3ncc(-c4ccc(F)cc4)n3c2)c1` showed an IC50 [1] of 8.66 µM and an IC50 [2] of 2.4 µM.

Molecule `COc1ccc(-n2nnnc2C(CCSC)N2CCC(n3c(=O)[nH]c4ccccc43)CC2)cc1` (configuration not stated) has an IC50 [1] of 13.7 µM and an IC50 [2] of 6.48 µM.

With `COc1ccc(C(=O)N[C@H](C(=O)Nc2nc3ccccc3[nH]2)C(C)C)cc1` the IC50 [1] was > 79 µM (inactive) and the IC50 [2] was 14.6 µM.

With `c1ccc2c(-c3ccc4nncn4c3)cncc2c1` the IC50 [1] was > 79 µM (inactive) and the IC50 [2] was 1.42 µM.

`CC(=O)Oc1ccc(N(C(C)=O)S(=O)(=O)c2ccc(Cl)cc2)c2ccccc12` showed an IC50 [1] of 22.8 µM and an IC50 [2] of 7.37 µM.

In the case of `C=CCn1cnc2c(c1=O)c1nc3ccccc3nc1n2/N=C/c1cc(OC)c(OC)c(OC)c1`, the IC50 [1] is reported as 5.94 µM and the IC50 [2] is reported as 4.18 µM.

For `COc1cc(/C=C2\SC(=O)N(CCNC(=O)c3sc4cc(F)ccc4c3Cl)C2=O)cc(OC)c1OC`, the IC50 [1] was 11.3 µM and the IC50 [2] was 7.99 µM.

With `Cc1ccccc1C(=O)N1CCN(c2ccc(NC(=O)CSc3ccc(Cl)cc3)cc2)CC1` the IC50 [1] was > 79 µM (inactive) and the IC50 [2] was 0.879 µM.

In the case of `CNC(=O)c1ccc(NC(=O)C2CCN(c3ncnc4sc(C)c(C)c34)CC2)cc1`, the IC50 [1] is reported as > 79 µM (inactive) and the IC50 [2] is reported as 5.49 µM.

`CC(=O)c1cccc(NC(=O)Nc2cccnc2)c1` showed an IC50 [1] of 40.3 µM and an IC50 [2] of 0.608 µM.

For `CCc1nc(Cl)c(C#N)c2c1CCCC2`, the IC50 [1] was 45.4 µM and the IC50 [2] was 2.87 µM.

For `Cc1c(-c2ccccc2)oc2c(C(=O)N3CCN(c4ccc([N+](=O)[O-])cc4)CC3)cccc2c1=O`, the IC50 [1] was > 79 µM (inactive) and the IC50 [2] was 0.854 µM.

For `CCOc1cc2c(cc1O)C(=NO)CC1C2CCC2(C)C(O)CCC12` (configuration not stated), the IC50 [1] was 31 µM and the IC50 [2] was 17.5 µM.

With `Cc1ccc2[nH]cc(C(=O)CCl)c2c1` the IC50 [1] was 4.07 µM and the IC50 [2] was 2.32 µM.

`Cc1ccc(-c2cc(C(=O)N(C)Cc3cnn(C)c3C)c3cc(Br)ccc3n2)cc1` showed an IC50 [1] of 14.4 µM and an IC50 [2] of 5.57 µM.

With `COc1cccc(-c2nnc3sc(C4CCCCC4)nn23)c1` the IC50 [1] was 10.6 µM and the IC50 [2] was 0.82 µM.

`COc1cccc(C(=O)N2C(C(C)C)COc3cc(Br)ccc3S2(=O)=O)c1` (configuration not stated) showed an IC50 [1] of 24.7 µM and an IC50 [2] of 12 µM.

`COc1ccc2[nH]cc(C(=O)CCl)c2c1` gave an IC50 [1] of 1.94 µM and an IC50 [2] of 1.21 µM.

With `C=CCSc1nsc(NC(=O)Nc2cccc(C(C)=O)c2)n1` the IC50 [1] was 6.08 µM and the IC50 [2] was 1.44 µM.

`CCSc1nsc(NC(=O)Nc2cccc(OC)c2)n1` showed an IC50 [1] of 23.3 µM and an IC50 [2] of 4.22 µM.

With `CCc1ccccc1NC(=O)CN(C)C(=O)Cn1ncc(Cl)c(Cl)c1=O` the IC50 [1] was 38 µM and the IC50 [2] was 6.43 µM.

With `O=C(Nc1ccc(Oc2ccc(NC(=O)Nc3ccc([N+](=O)[O-])cc3)cc2)cc1)Nc1ccc([N+](=O)[O-])cc1` the IC50 [1] was 27.8 µM and the IC50 [2] was 6.12 µM.

In the case of `COc1ccc(-c2csc(NC3OC(=O)c4c3ccc(OC)c4OC)n2)cc1OC` (configuration not stated), the IC50 [1] is reported as > 79 µM (inactive) and the IC50 [2] is reported as 3.12 µM.

Molecule `COc1ccc(-n2nnnc2C(c2cccs2)N2CCC(n3c(=O)[nH]c4ccccc43)CC2)cc1` (configuration not stated) has an IC50 [1] of 14.2 µM and an IC50 [2] of 5.05 µM.

`Cc1cccc(N(Cc2cc(=O)[nH]c3ccccc23)C(=O)CCl)c1` showed an IC50 [1] of 2 µM and an IC50 [2] of 1.23 µM.

In the case of `CC(=O)c1c(C)n(-c2ccc(C)cc2C)c2ccc(O)cc12`, the IC50 [1] is reported as > 79 µM (inactive) and the IC50 [2] is reported as 12.7 µM.

`CCCCCc1cc(O)c2c(C)cc(=O)oc2c1` gave an IC50 [1] of 7.62 µM and an IC50 [2] of 4.83 µM.

With `Cc1ccc(-c2n[nH]c(=S)n2/N=C/c2ccncc2)cc1` the IC50 [1] was 53.1 µM (inactive) and the IC50 [2] was 2.63 µM.

In the case of `Nc1ncnc(Sc2ccc(Cl)cc2)c1[N+](=O)[O-]`, the IC50 [1] is reported as 11.6 µM and the IC50 [2] is reported as 4.13 µM.

Work on `C[C@]12CCC(O)CC1CCC1C2CC[C@]2(C)C(c3cc(C(F)(F)F)n[nH]3)CCC12` (some centres not stated) yielded an IC50 [1] of 5.25 µM and an IC50 [2] of 1.92 µM.

`Cc1nnc(Sc2nc3ccccc3o2)c2ccccc12` showed an IC50 [1] of 5.61 µM and an IC50 [2] of 6.57 µM.

With `c1nc(NCc2ccc3c(c2)OCO3)c2cc(-c3ccoc3)ccc2n1` the IC50 [1] was 5.93 µM and the IC50 [2] was 0.34 µM.

Reference: PubChem BioAssay AID624344 (Sanford-Burnham Center for Chemical Genomics, 2012)
